Results on 32 molecules are retold here after patent US10144736B2 (Gilead Sciences, Inc., priority 2006, dated 2018).

Like-named read-outs stand apart in the source and are kept apart here.

By EC50 is commonly meant the concentration that produces a half-maximal response. Broadly, the CC50 is the concentration that lowers cell viability or growth by half. A higher CC50 goes with better tolerance by the cells.

The test system of one series is HCV replicon. As to the kind of experiment: Anti-HCV replicon assay (EC50, luciferase readout). The format is cell-based, hepatitis C virus. Conditions: Hepatitis C virus, human hepatoma Huh-7 cell line harbouring a HCV replicon, 3 days incubation, luciferase signal. As to the method: (§1) The anti HCV activity of specifically substituted pteridine derivatives was tested in a human hepatoma Huh-7 cell line harbouring a HCV replicon. The assay comprised the following steps:
(§2) Step 1: compound preparation and serial dilution involved the following alternatives, depending upon the water solubility of pteridine derivative being tested:
(§3) • 1. with respect to water soluble pteridine derivatives, 500 μL of solution in cell media (DMEM, 10% FBS, P/S, L-Glutamine) was prepared with a concentration that is twice the concentration of the starting final serial dilution concentration. 150 μL of the solution was added to the pre-specified wells in column 1 of a 96-well cell culture plate (PerkinElmer, white plate, cat. #6005181, for EC50 assay; black plate, cat. #6005182 for CC50 assay). The rest of the plate, i.e. columns 2-12, was filled with 100 μL of cell media. The plate was then placed on a Precision 2000 Workstation in order to start serial dilution. Pteridine compounds were diluted three times each step from column 1 to column 10. Column 11 was used as a blank control (no pteridine compound added). • 2. With respect to poorly water soluble pteridine derivatives, DMSO was used as a solvent, and serial dilution was performed in 50% DMSO in water, in a 384-well plate. A solution containing the relevant compound at 100-fold the concentration of the starting final serial dilution concentration was prepared in 50% DMSO in water and added to the pre-specified wells in column 1 of a polypropylene 384-well plate. This plate was then placed on a Precision 2000 Workstation in order to start serial dilution. After serial dilution, 2 μL of the solution was transferred from the 384-well plate to a 96-well cell culture plate containing 100 μL of cell media on a Biomek FX Workstation. The DMSO concentration in the final assay condition was 0.5% after cells have been added to the plate and the total volume in each well was brought to 200 μL. Step 2: to each well of the serial dilution plate prepared in step 1, 100 μL of cell media containing 6000 suspended Huh-7 HCV replicon cells was added with a Multidrop workstation. Plates were incubated for 3 days at 37° C. with 5% CO2. Step 3: detection: • 1) with respect to the EC50 assay, the media in a 96-well cell culture plate was aspirated with a Biotek EL405 plate-washer. A volume of 200 μL of a solution containing a 1:1 mixture of a cell-lysis buffer (commercially available from Promega, Luciferase Cell Culture Lysis 5X Reagent, cat. #E1531) and a luciferase substrate solution (commercially available from Promega, Luciferase Assay, cat. #E4550) was added to each well of the plate with Multidrop. The plate was incubated for 30 minutes at room temperature before the luminescence signal was measured with a TopCount plate-reader. • 2) with respect to the CC50 assay, 100 μL of a pre-mixed CellTiter-Glo (commercially available from Promega, cat. #G7572) solution was added directly to the cell culture in each well of the plate and the luminescence signal was measured with a TopCount plate-reader after 10 minutes of incubation at room temperature.
(§4) Results are expressed by the following data: • the 50% effective concentration (EC50), i.e. the concentration that protects 50% of the cell monolayer from virus-induced cythopathic effect. • the 50% cytostatic concentration (CC50), i.e. the concentration that results in 50% inhibition of cell growth.
(In antiviral work, replicon cells carry a viral genome segment that copies itself.)

Series [1] is described as follows: CC50 assay (CellTiter-Glo) in Huh-7 HCV replicon cells. Type of series: cell-based, human. Conditions: human, 3 days incubation, 50% cytostatic concentration. As to the method: as §1, §2, §3, §4
(In general: Cellular ATP, detected with luciferase, serves as a proxy for viable cell number.)

`COc1ccc(-c2cnc3nc(N)nc(N4CCOCC4)c3n2)cn1` [Example 130, 6-(6-methoxypyridin-3-yl)-4-morpholinopteridin-2-ylamine]: in the series on HCV replicon (72 h, read-out: EC50), the EC50 fell in the range of 1 to 10 µM. Besides, the CC50 at 3 days in series [1] was above 20 µM.
The corresponding values for `Nc1nc(N2CCOCC2)c2nc(-c3ccc4c(c3)CC(=O)N4)cnc2n1` [Example 136, 5-(2-amino-4-morpholinopteridin-6-yl)indolin-2-one] are 1 to 10 µM and 10 to 20 µM.
The corresponding values for `Nc1nc(N2CCOCC2)c2nc(-c3ccc(NC(=O)[C@@H](N)CO)cc3)cnc2n1` [Example 144, (S)-2-amino-N-(4-(2-amino-4-morpholinopteridin-6-yl)phenyl)-3-hydroxypropanamide] are 1 to 10 µM and above 20 µM.
`Nc1nc(N2CCOCC2)c2nc(-c3ccccc3Cl)cnc2n1` [Example 78, 6-(2-chlorophenyl)-4-morpholinopteridin-2-ylamine] displayed an EC50 in the series on HCV replicon (Huh-7, 72 h) of 0.3 to 1 µM. Besides, the CC50 at 3 days in series [1] is below 10 µM.
As for `CCCOc1nc(N)nc2ncc(-c3ccc(F)cc3)nc12` [Example 159, 6-(4-Fluorophenyl)-4-propoxy-pteridin-2-ylamine], the EC50 in the series with HCV replicon (72 h, read-out: EC50) lay in the range of 1 to 10 µM. The molecule further showed a 50% cytotoxic concentration (CC50) at 3 days in series [1] above 20 µM.
The corresponding values for `COC(=O)Nc1ccc(-c2cnc3nc(N)nc(N4CCOCC4)c3n2)cc1` [Example 129, methyl 4-(2-amino-4-morpholinopteridin-6-yl)phenylcarbamate] are below 0.3 µM and below 10 µM.
In the same order, the values of `Nc1nc(N2CCOCC2)c2nc(-c3ccsc3)cnc2n1` [Example 110, 4-morpholino-6-(thiophen-3-yl)pteridin-2-ylamine] are 1 to 10 µM and above 20 µM.
In the same order, the values of `CCOc1cccc(-c2cnc3nc(N)nc(N4CCOCC4)c3n2)c1` [Example 126, 6-(3-ethoxyphenyl)-4-morpholinopteridin-2-ylamine] are 1 to 10 µM and 10 to 20 µM.
With `Nc1nc(N2CCOCC2)c2nc(-c3cccc(OC(F)(F)F)c3)cnc2n1` [Example 84, 4-morpholino-6-(3-(trifluoromethoxy)phenyl)-pteridin-2-ylamine], the EC50 in the series on HCV replicon (72 h, read-out: EC50) is below 0.3 µM. This molecule also came in with a CC50 at 3 days in series [1] below 10 µM.
In the same order, the values of `CCOc1nc(N)nc2ncc(-c3ccc(C)cc3)nc12` [Example 54, 4-ethoxy-6-p-tolylpteridin-2-ylamine] are 1 to 10 µM and above 20 µM.
For the molecule `CCOc1nc(N)nc2ncc(-c3ccc(OC)c(F)c3)nc12` [Example 3, 4-ethoxy-6-(3-fluoro-4-methoxyphenyl)pteridin-2-ylamine], the EC50 in the series on HCV replicon (72 h, read-out: EC50) was in the range of 1 to 10 µM. The molecule further came in with a CC50 at 3 days in series [1] above 20 µM.
As to `Nc1nc(N2CCOCC2)c2nc(-c3ccc(Cl)s3)cnc2n1` [Example 127], in the series on HCV replicon (Huh-7, in Homo sapiens, 72 h), the half-maximal effective concentration (EC50) was 0.3 to 1 µM. Besides, the CC50 at 3 days in series [1] was below 10 µM.
Take `Nc1nc(N2CCOCC2)c2nc(-c3ccc(C(F)(F)F)cc3C(F)(F)F)cnc2n1` [Example 93, 6-(2,4-bis(trifluoromethyl)phenyl)-4-morpholinopteridin-2-ylamine]: in the series with HCV replicon (72 h, read-out: EC50), the EC50 lay within 1 to 10 µM. For the same molecule, the CC50 at 3 days in series [1] fell in the range of 10 to 20 µM.
In the case of `CCOc1nc(N)nc2ncc(-c3ccc(S(C)(=O)=O)cc3)nc12` [Example 30, 4-ethoxy-6-(4-(methylsulfonyl)phenyl)pteridin-2-ylamine], the EC50 in the series on HCV replicon (72 h, read-out: EC50) lay in the range of 1 to 10 µM. In series [1], the CC50 at 3 days is above 20 µM.
The corresponding values for `Nc1nc(N2CCOCC2)c2nc(-c3ccc(CN4CCOCC4)cc3)cnc2n1` [Example 89, 4-morpholino-6-(4-(morpholino-methyl)phenyl)pteridin-2-ylamine] are 1 to 10 µM and above 20 µM.
`Nc1nc(N2CCOCC2)c2nc(-c3cccc(Cl)c3Cl)cnc2n1` [Example 91, 6-(2,3-dichlorophenyl)-4-morpholinopteridin-2-amine] had an EC50 in the series on HCV replicon (Huh-7, 72 h) of 0.3 to 1 µM. In series [1], this molecule yielded a CC50 at 3 days above 20 µM.
With `Nc1nc(OCC2CC2)c2nc(-c3ccc(F)cc3)cnc2n1` [Example 157, 4-Cyclopropylmethoxy-6-(4-fluorophenyl)-pteridin-2-ylamine], in the series on HCV replicon (72 h, read-out: EC50), the EC50 was in the range of 1 to 10 µM. The CC50 at 3 days in series [1] is above 20 µM.
In the series with HCV replicon (Huh-7, 72 h), `CCOc1nc(N)nc2ncc(-c3ccc(O)cc3)nc12` [Example 57, 4-(2-amino-4-ethoxypteridin-6-yl)phenol] gave an EC50 of 1 to 10 µM. In series [1], this molecule returned a CC50 at 3 days above 20 µM.
In the same order, the values of `CCOc1nc(N)nc2ncc(-c3ccc(Cl)cc3)nc12` [Example 27, 6-(4-chlorophenyl)-4-ethoxypteridin-2-ylamine] are 0.3 to 1 µM and below 10 µM.
Take `Nc1nc(N)c2nc(-c3cccc(F)c3F)cnc2n1` [Example 143, 6-(2,3-difluoro-phenyl)-pteridine-2,4-diamine]: the EC50 in the series with HCV replicon (72 h, read-out: EC50) fell in the range of 1 to 10 µM. Further, the CC50 at 3 days in series [1] is 10 to 20 µM.
In the case of `Nc1nc(N2CCOCC2)c2nc(-c3cccnc3F)cnc2n1` [Example 109, 6-(2-fluoropyridin-3-yl)-4-morpholino-pteridin-2-ylamine], the EC50 in the series with HCV replicon (Huh-7, 72 h) was in the range of 1 to 10 µM. In addition, the cytotoxic concentration (CC50) at 3 days in series [1] was 10 to 20 µM.
As for `CCSc1nc(N)nc2ncc(-c3ccc(F)cc3)nc12` [Example 164, 4-ethylthio-6-(4-fluorophenyl)-pteridin-2-ylamine], in the series with HCV replicon (72 h, read-out: EC50), the EC50 was 0.3 to 1 µM. This molecule had a half-maximal cytotoxic concentration (CC50) at 3 days in series [1] above 20 µM.
With `Nc1nc(N2CCOCC2)c2nc(-c3cc4ccccc4s3)cnc2n1` [Example 123, 6-(benzo[b]thiophen-2-yl)-4-morpholinopteridin-2-ylamine], the concentration giving a half-maximal response (EC50) in the series with HCV replicon (Huh-7, 72 h) was 0.3 to 1 µM. Further, the CC50 at 3 days in series [1] was below 10 µM.
With `Nc1nc(N2CCOCC2)c2nc(-c3c(Cl)cccc3Cl)cnc2n1` [Example 95, 6-(2,6-dichlorophenyl)-4-morpholinopteridin-2-ylamine], in the series on HCV replicon (Huh-7, 72 h), the 50% effective concentration (EC50) lay within 1 to 10 µM. The same molecule displayed a CC50 at 3 days in series [1] of 10 to 20 µM.
The corresponding values for `CC(C)(O)CCOc1nc(N)nc2ncc(-c3ccc(F)cc3)nc12` [Example 154, 4-[2-Amino-6-(4-fluorophenyl)-pteridin-4-yloxy]-2-methyl-butan-2-ol] are 1 to 10 µM and above 20 µM.
Turning to `CC(C)Oc1nc(N)nc2ncc(-c3ccc(F)cc3)nc12` [Example 150, 6-(4-Fluorophenyl)-4-isopropoxy-pteridin-2-ylamine], the EC50 in the series on HCV replicon (72 h, read-out: EC50) is below 0.3 µM. This molecule came in with a CC50 at 3 days in series [1] above 20 µM.
In the same order, the values of `Cc1cc(F)ccc1-c1cnc2nc(N)nc(N3CCOCC3)c2n1` [Example 120, 6-(4-fluoro-2-methylphenyl)-4-morpholinopteridin-2-ylamine] are 1 to 10 µM and 10 to 20 µM.
In the same order, the values of `Nc1nc(N2CCOCC2)c2nc(-c3ccn[nH]3)cnc2n1` [Example 112, 4-morpholino-6-(1H-pyrazol-5-yl)pteridin-2-ylamine] are 1 to 10 µM and above 20 µM.
Regarding `Nc1nc(N2CCOCC2)c2nc(-c3cccc(Cl)c3)cnc2n1` [Example 82, 6-(3-chlorophenyl)-4-morpholinopteridin-2-ylamine], the EC50 with HCV replicon (Huh-7, 72 h) fell in the range of 0.3 to 1 µM. Besides, the cytotoxic concentration (CC50) at 3 days in series [1] is above 20 µM.
On to `Nc1nc(N2CCOCC2)c2nc(-c3cccnc3)cnc2n1` [Example 108, 4-morpholino-6-(pyridin-3-yl)pteridin-2-ylamine], for which the EC50 in the series on HCV replicon (72 h, read-out: EC50) lay within 0.3 to 1 µM. Further, the CC50 at 3 days in series [1] fell in the range of 10 to 20 µM.
In the same order, the values of `C[C@H](NC(=O)OC(C)(C)C)C(=O)Nc1ccc(-c2cnc3nc(N)nc(N4CCOCC4)c3n2)cc1` [Example 140, (S)-tert-butyl 1-(4-(2-amino-4-morpholinopteridin-6-yl)phenylamino)-1-oxopropan-2-ylcarbamate] are 1 to 10 µM and below 10 µM.
On to `CCOc1nc(N)nc2ncc(-c3ccncc3)nc12` [Example 31, 4-ethoxy-6-(pyridin-4-yl)pteridin-2-ylamine], for which, in the series on HCV replicon (72 h, read-out: EC50), the half-maximal effective concentration (EC50) was in the range of 0.3 to 1 µM. The molecule also had a CC50 at 3 days in series [1] below 10 µM.
